# Laboratory results: patent publication US20240352066A1, “ANTIMICROBIAL COMPOUNDS AND THE METHOD OF USE” (priority 2021, published 2024)
# Where a SMILES comes first, the peptide text is derived from it. [ ]: non-standard residue; d: D form. N(tridecyl)Gly = CCCCCCCCCCCCCNCC(=O)O; Gly(N-2-aminoethyl) = NCCNCC(=O)O; Gly(N-cHex) = O=C(O)CNC1CCCCC1; Nleu = CC(C)CNCC(=O)O; Nlys = NCCCCNCC(=O)O
# Assays:
# [1] = test system: human red blood cells (hRBC); experiment: Hemolytic activity against human red blood cells; format: cell-based; settings: for hRBC HC10: Example 2, same donor sample of hRBCs
# Method: Hemolytic activity was determined using single donor human red blood cells (hRBC). hRBCs were washed with PBS and centrifuged (1000 RPM; 10 minutes) three times, resuspended in PBS and aliquoted (100 μL) in 96 well plates. 2-fold serial dilutions of 10× peptoid final concentrations in PBS were prepared and added to wells in triplicate. PBS was used as a vehicle control and 1% Triton X-100 as a positive control. Plates were incubated for 1 hour (37° C.; 5% CO2) then centrifuged (1000 RPM; 10 minutes) and supernatant was diluted 1:20 into PBS in a new 96-well plate. Plates were read on a SpectraMax M5 plate reader (Abs. 405 nm). Percent hemolysis was determined by the following equation: […]
# GraFit was used to determine concentrations at 50% hemolytic activity (HC50) and the Hill coefficient (H). Hemolytic activity at 10% (HC10) was then determined by the following equation: […]
# The hemolytic activity of select peptoids was determined as done previously (Green et al. ACS medicinal chemistry letters 12 9, 1470-1477 (2021); Middleton et al. Bioorganic & medicinal chemistry letters 28 22, 3514-3519 (2018)). Selected peptoids were prepared in 2-fold serial dilutions in PBS at the desired concentrations. Human red blood cells (hRBCs, 9 mL) were centrifuged at 1000 rpm for 10 minutes, and the supernatant was removed and discarded. A 10 mL aliquot of PBS was used to resuspend the hRBCs which were centrifuged again at 1000 rpm for 10 minutes. This PBS wash was completed two more times for a total of three washes. A 9 mL aliquot of PBS was added to the hRBCs, and 100 μL of cell solution was added to individual wells of a 96-well plate. Peptoid solutions (11.1 μL) were added to the appropriate wells in triplicate. A vehicle control of PBS and positive control of 1% Triton X-100 were added to wells in triplicate.
# The plate was incubated at 37° C. for 1 hour and centrifuged at 1000 rpm for 10 minutes. For each well, 5 μL of supernatant was transferred to 95 μL of PBS in a new 96-well plate. The absorbance at 405 nm was measured using a SpectraMax M5 Plate Reader, and the percent hemolysis was calculated as follows: […]
# [2] = test system: HepG2 hepatocellular carcinoma cells; experiment: Mammalian cytotoxicity, MTT, HepG2; format: cell-based, human
# In short: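 HepG2 cells (1×10^5 cells/mL, phenol-red-free DMEM, 10% FBS) were exposed to 2-fold dilutions of compound at 1.56–200 μg/mL final, in triplicate, for 72 h at 37 °C, 5% CO2. MTT was added for 3 h and, after DMSO solubilization, absorbance was read at 570 nm. TD50 is the concentration giving a 50% growth reduction versus the water vehicle, reported as the mean of biological replicates ± SD.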
# C. neoformans = experiment: microbe, parasite or virus in culture; format: cell-based, Cryptococcus neoformans; settings: 72 h
# Method: Cell solution was diluted into RPMI-MOPS (1:100) followed by another dilution into RPMI-MOPS (1:20). […] Plates were incubated for 72 hours at 35° C. MIC was determined as the lowest concentration of individual compound or combined compounds inhibiting pathogen growth. Fractional inhibitory concentration index (FICi) was determine using the following equation: FICi values were interpreted as follows: FICi<0.5 synergistic; 0.5≤FICi≤4 indifferent; FICi>4 antagonist (Johnson et al., Antimicrob. Agents Chemother. 48, 693-715 (2004)).
SMILES,hRBC HC10 [1],TD50 HepG2 [2],"HC10 hRBC ([1]; Example 1, 10% lysis, 1 hour)",MIC (compound alone) (C. neoformans)
CCCCCCCCCCCCCNCC(=O)N(CC(=O)N(CCCCN)CC(=O)N(CCN)CC(=O)N(CC(N)=O)CC(C)C)CC(C)C [Compound 9] (H-[N(tridecyl)Gly][Nleu][Nlys][Gly(N-2-aminoethyl)][Nleu]-NH2),130 ± 45 µg/mL,,,
"CCCCCCCCCCCCCNCC(=O)N(CC(=O)N(CCCCN)CC(=O)N(CCN)CC(=O)N(CC(N)=O)C1CCCCC1)C1CCCCC1 [RMG8-8, Ntri-Ncha-Nlys-Nae-Ncha] (H-[N(tridecyl)Gly][Gly(N-cHex)][Nlys][Gly(N-2-aminoethyl)][Gly(N-cHex)]-NH2)",75 ± 31 µg/mL,189 µg/mL,77 µg/mL,1.56 µg/mL
